The source of these data is patent US11014917B2, “5-fluoro-c-(aryl or heterocyclyl)-glycoside derivatives useful as dual SGLT1 / SGLT2 modulators” (Janssen Pharmaceutica NV, priority 2017, dated 2021).

One assay deals with T1, human SGLT1 (Homo sapiens, UniProt P13866).
T1 construct: expressed in transfected cells
T1 sequence (P13866 1-664): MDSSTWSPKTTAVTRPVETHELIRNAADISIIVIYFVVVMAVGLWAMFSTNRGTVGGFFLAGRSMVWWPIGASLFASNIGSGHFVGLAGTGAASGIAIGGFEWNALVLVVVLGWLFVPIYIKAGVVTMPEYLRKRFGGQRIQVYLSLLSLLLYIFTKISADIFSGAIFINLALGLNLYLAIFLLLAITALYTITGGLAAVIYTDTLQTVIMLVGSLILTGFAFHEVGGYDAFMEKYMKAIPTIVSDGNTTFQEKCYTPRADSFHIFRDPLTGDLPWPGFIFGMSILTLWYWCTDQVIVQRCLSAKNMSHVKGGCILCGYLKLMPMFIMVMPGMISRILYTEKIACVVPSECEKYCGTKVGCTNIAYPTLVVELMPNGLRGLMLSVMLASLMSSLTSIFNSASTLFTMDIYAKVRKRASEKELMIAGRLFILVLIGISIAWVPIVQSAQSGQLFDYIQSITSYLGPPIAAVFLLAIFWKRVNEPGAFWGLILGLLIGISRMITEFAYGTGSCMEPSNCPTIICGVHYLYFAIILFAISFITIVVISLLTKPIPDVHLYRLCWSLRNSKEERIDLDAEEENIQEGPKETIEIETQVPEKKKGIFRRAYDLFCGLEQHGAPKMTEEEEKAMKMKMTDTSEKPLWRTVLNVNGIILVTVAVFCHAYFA
Briefly: SGLT1 assay: Na-dependent 14C-AMG uptake in CHO-K1 cells stably expressing human SGLT1. Format: cell-based. The note with it: for pIC50: average if tested more than once. On the procedure:
(§1) The ability of the compounds of formula (I) of the present invention to treat an SGLT-mediated condition was determined using the following procedures:
(§2) SGLT1 and SGLT2 were cloned in form of cDNA from human small intestine (Genbank M24847), and from human kidney (Genbank M95549), respectively. Subsequently, each full cDNA was subcloned into pcDNA with each construct's integrity verified through follow-on sequencing. To generate CHO-K1 cells that stably express human SGLT1 or human SGLT2, CHO-K1 cells were transfected using DMRIE-C reagent (Life Technologies, Gaithersburg, Md.). Transfected cells were then selected in the presence of 500 μg/ml of the Geneticin (G418 Cellgro Catalog No. 30234-Cl)
(§3) Individual clones were then characterized using the following cell-based assay for sodium-dependent glucose transport:
(§4) Inhibition of SGLT1 and SGLT2 activity was assessed in CHO K1 cells stably expressing either human SGLT1 or SGLT2, using the SGLT specific glucose analog methyl-glucopyranoside (Sigma Catalog No. M-9376). Cells were plated (45,000 cells/well) in white wall 96-well plates (COSTAR, Cat #3903) for 24 hours in growth medium, then a final concentration of 10 mM Na-Butyrate (ALDRICH Cat #30341-0) was added. The cells were incubated for 24 hours. On the day of the assay, cells were rinsed and treated with test compounds (at concentrations of 0.001 μM to 10 μM) in assay buffer (50 mM HEPES, 20 mM Tris base, 5 mM KCl, 1 mM MgCl2, 1 mM CaCl2 and 137 mM NaCl, pH 7.4) for 10 minutes. Cells were then incubated with ^14C-a-methyl-d-glucopyranoside (AMG, Amersham Catalog No. CFB 76), using 0.07 μCi per well in 500 μM AMG final concentration. The cells were incubated for 2 hours at 37° C. with 5% CO2 and washed two times with ice-cold Phosphate Buffer Solution (Cellgro Catalog No. 21030-CV). The cells were then solubilized by adding 60 μl of MICROSCINT™20 and the Na-dependent ^14C-AMG uptake was quantified by measuring radioactivity. Plates were counted in a TopCount (Packard, Meriden, Conn.)
(§5) Representative compounds of the present invention were tested according to the procedures as described in Biological Example 1 and 2 above, with results as listed in Table 5, below. Results are reported as the %-inhibition or IC50 value. Variability for the functional assay was typically within 20%.

The target of another assay is T2, human SGLT2 (Homo sapiens, UniProt P31639).
T2 construct: expressed in transfected cells
T2 sequence (P31639 1-672): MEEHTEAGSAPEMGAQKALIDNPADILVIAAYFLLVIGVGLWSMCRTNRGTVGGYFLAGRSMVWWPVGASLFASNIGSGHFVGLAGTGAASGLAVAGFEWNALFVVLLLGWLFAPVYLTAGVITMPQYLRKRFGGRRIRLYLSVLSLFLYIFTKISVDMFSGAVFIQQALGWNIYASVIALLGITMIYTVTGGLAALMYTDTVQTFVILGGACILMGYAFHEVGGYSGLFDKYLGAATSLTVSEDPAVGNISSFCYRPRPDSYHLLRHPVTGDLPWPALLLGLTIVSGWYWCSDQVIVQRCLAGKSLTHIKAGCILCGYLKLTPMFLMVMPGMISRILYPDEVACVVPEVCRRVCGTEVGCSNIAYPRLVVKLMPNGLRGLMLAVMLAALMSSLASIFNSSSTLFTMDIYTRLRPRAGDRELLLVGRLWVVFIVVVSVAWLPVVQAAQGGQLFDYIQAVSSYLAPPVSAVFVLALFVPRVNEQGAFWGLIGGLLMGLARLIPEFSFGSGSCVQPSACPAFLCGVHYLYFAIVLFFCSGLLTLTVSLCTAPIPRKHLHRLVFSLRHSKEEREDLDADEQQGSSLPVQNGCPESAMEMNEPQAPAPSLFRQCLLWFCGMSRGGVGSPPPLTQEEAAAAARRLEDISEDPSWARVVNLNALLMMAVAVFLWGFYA
Description: SGLT2 assay: Na-dependent 14C-AMG uptake in CHO-K1 cells stably expressing human SGLT2. The note with it: for pIC50: average if tested more than once. Format: cell-based. On the procedure: as §1, §2, §3, §4, §5

Structures are written as SMILES. pIC50: −log10 of the molar value.

For the compound `COc1cc(Cl)c([C@@H]2O[C@H](CC#N)[C@@H](F)[C@H](O)[C@H]2O)cc1Cc1cc2ccccc2s1` [Compound 26], the pIC50 (as a rule, the negative decadic logarithm of the IC50, by convention in mol/L) on human SGLT1 was 6.07; against human SGLT2 it was 6.01.

For the compound `OC[C@H]1O[C@@H](c2cc(Cc3cc4ccccc4s3)c(C3CC3)cc2O)[C@H](O)[C@@H](O)[C@@H]1F` [Compound 29], the pIC50 is 7.89 at human SGLT1 and 7.21 against human SGLT2.

With `CCc1cc(O)c([C@@H]2O[C@H](CO)[C@@H](F)[C@H](O)[C@H]2O)cc1Cc1cc2ccccc2s1` [Compound 31], the pIC50 was 8.05 on human SGLT1 and 7.72 at human SGLT2.

Consider `COc1cc(CO)c([C@@H]2O[C@H](CO)[C@@H](F)[C@H](O)[C@H]2O)cc1Cc1cc2ccccc2s1` [Compound 34], for which the SGLT1 %-inhibition on human SGLT1 (@ 0.3 μM) is recorded as 38.6% @ 0.3 μM. Also, the SGLT2 %-inhibition on human SGLT2 (@ 0.3 μM) was 27.6% @ 0.3 μM.

As to `Cc1cc(O)c([C@@H]2O[C@H](C(C)(C)O)[C@@H](F)[C@H](O)[C@H]2O)cc1Cc1cc2ccccc2s1` [Compound 39], the negative-log IC50 (pIC50) on human SGLT1 is 6.42; at human SGLT2, 6.91.

As for `Cc1cc(CO)c([C@@H]2O[C@H](CO)[C@@H](F)[C@H](O)[C@H]2O)cc1Cc1cc2ccccc2s1` [Compound 42], the pIC50 at human SGLT1 is 7.01; on human SGLT2, 8.00.

As to `OC[C@H]1O[C@@H](c2cc3c(c(Cc4ccc5c(c4)OCCO5)c2)OCC3)[C@H](O)[C@@H](O)[C@@H]1F` [Compound 54], the pIC50 on human SGLT1 is 7.16; at human SGLT2 it was 7.96.

Turning to `OC[C@H]1O[C@@H](c2cc3c(c(Cc4ccc5c(c4)CCCO5)c2)OCC3)[C@H](O)[C@@H](O)[C@@H]1F` [Compound 56], the negative-log IC50 (pIC50) at human SGLT1 is 6.28; against human SGLT2, 7.92.

For the compound `OC[C@H]1O[C@@H](c2cc(Cc3cc4ccccc4s3)c3c(c2O)CCO3)[C@H](O)[C@@H](O)[C@@H]1F` [Compound 59], the pIC50 is 7.51 against human SGLT1 and 8.05 on human SGLT2.

As to `OC[C@H]1O[C@@H](c2cc(Cc3ccc4c(c3)OCCO4)c3c(c2O)CCO3)[C@H](O)[C@@H](O)[C@@H]1F` [Compound 61, (2S,3R,4R,5S,6R)-2-(7-((2,3-dihydrobenzo[b][1,4]dioxin-6-yl)methyl)-4-hydroxy-2,3-dihydrobenzofuran-5-yl)-5-fluoro-6-(hydroxymethyl)tetrahydro-2H-pyran-3,4-diol], the pIC50 at human SGLT1 was 7.85; at human SGLT2, 8.52.

On to `CCc1ccc(Cc2cc([C@@H]3O[C@H](CO)[C@@H](F)[C@H](O)[C@H]3O)c(O)c3c2OCC3)cc1` [Compound 62], for which the pIC50 was 7.32 against human SGLT1 and 8.40 on human SGLT2.

Turning to `CCOc1ccc(Cc2cc([C@@H]3O[C@H](CO)[C@@H](F)[C@H](O)[C@H]3O)c(O)c3c2OCC3)cc1` [Compound 63], the pIC50 on human SGLT1 is 6.91; on human SGLT2, 8.40.

As to `CCOC(=O)N1CCc2sc(Cc3cc([C@@H]4O[C@H](CO)[C@@H](F)[C@H](O)[C@H]4O)c(O)cc3C)cc2C1` [Compound 64], the pIC50 is 6.81 on human SGLT1 and 7.44 on human SGLT2.

Regarding `COc1c([C@@H]2O[C@H](CO)[C@@H](F)[C@H](O)[C@H]2O)cc(Cc2ccc3c(c2)OCCO3)c2c1CCO2` [Compound 65, (2S,3R,4R,5S,6R)-2-(7-((2,3-dihydrobenzo[b][1,4]dioxin-6-yl)methyl)-4-methoxy-2,3-dihydrobenzofuran-5-yl)-5-fluoro-6-(hydroxymethyl)tetrahydro-2H-pyran-3,4-diol], the negative-log IC50 (pIC50) on human SGLT1 was 7.37; against human SGLT2, 8.05.

With `Cc1cc(O)c([C@@H]2O[C@H](CO)[C@@H](F)[C@H](O)[C@H]2O)cc1Cc1cc2c(s1)CCN(C(=O)N1CCCC1)C2` [Compound 66, (2-(5-((2S,3R,4R,5S,6R)-5-fluoro-3,4-dihydroxy-6-(hydroxymethyl)tetrahydro-2H-pyran-2-yl)-4-hydroxy-2-methylbenzyl)-6,7-dihydrothieno[3,2-c]pyridin-5(4H)-yl)(pyrrolidin-1-yl)methanone], the figures for the pIC50 against human SGLT1 and on human SGLT2 were 7.40 and 7.85, respectively.

The compound `Cc1cc(O)c([C@@H]2O[C@H](CO)[C@@H](F)[C@H](O)[C@H]2O)cc1Cc1cc2c(s1)CCN(C(=O)N1CCOCC1)C2` [Compound 67] registered an SGLT1 %-inhibition at human SGLT1 (@ 0.3 μM) of 64.9% @ 0.3 μM. On human SGLT2 (@ 0.3 μM), the SGLT2 %-inhibition was 57.5% @ 0.3 μM.

In the case of `Cc1c(Cc2cc3ccccc3s2)cc([C@@H]2O[C@H](CO)[C@@H](F)[C@H](O)[C@H]2O)c2c1CCO2` [Compound 68], the pIC50 on human SGLT1 was 7.26; against human SGLT2, 7.68.

For the compound `COc1cc(C)c(Cc2cc3c(s2)CCN(C(=O)N2CCOCC2)C3)cc1[C@@H]1O[C@H](CO)[C@@H](F)[C@H](O)[C@H]1O` [Compound 69], the SGLT1 %-inhibition at human SGLT1 (@ 0.3 μM) came out at 20.4% @ 0.3 μM. The compound also registered an SGLT2 %-inhibition on human SGLT2 (@ 0.3 μM) of 60.3% @ 0.3 μM.

Turning to `O=C(N1CCCC1)N1CCc2sc(Cc3cc([C@@H]4O[C@H](CO)[C@@H](F)[C@H](O)[C@H]4O)cc4c3OCC4)cc2C1` [Compound 70], the pIC50 against human SGLT1 was 7.00; against human SGLT2, 6.79.

For `COC(=O)N1CCc2sc(Cc3cc([C@@H]4O[C@H](CO)[C@@H](F)[C@H](O)[C@H]4O)c(O)cc3Cl)cc2C1` [Compound 73], the negative logarithm of the IC50 (pIC50) is 6.62 on human SGLT1 and 7.32 against human SGLT2.

At human SGLT1 (@ 0.3 μM), `CC(=O)N1CCc2sc(Cc3cc([C@@H]4O[C@H](CO)[C@@H](F)[C@H](O)[C@H]4O)c(O)cc3Cl)cc2C1` [Compound 74] returned an SGLT1 %-inhibition of 65.5% @ 0.3 μM. Besides, the SGLT2 %-inhibition at human SGLT2 (@ 0.3 μM) came to 65.2% @ 0.3 μM.

Consider `OCC1COc2c(Cc3ccc4c(c3)OCCO4)cc([C@@H]3O[C@H](CO)[C@@H](F)[C@H](O)[C@H]3O)cc21` (stereo partly drawn) [Compound 75, (2S,3R,4R,5S,6R)-2-(7-((2,3-dihydrobenzo[b][1,4]dioxin-6-yl)methyl)-3-(hydroxymethyl)-2,3-dihydrobenzofuran-5-yl)-5-fluoro-6-(hydroxymethyl)-tetrahydro-2H-pyran-3,4-diol], for which the inhibition (as a rule, the percentage by which the read-out fell short of the control) at 0.3 µM against human SGLT1 (@ 0.3 μM) is 61.9%; on human SGLT2 (@ 0.3 μM), 43.7%.

As to `COC(=O)N1CCc2sc(Cc3cc([C@@H]4O[C@H](CO)[C@@H](F)[C@H](O)[C@H]4O)c(OC)cc3Cl)cc2C1` [Compound 76], the SGLT1 %-inhibition at human SGLT1 (@ 0.3 μM) is given as 28.6% @ 0.3 μM. At human SGLT2 (@ 0.3 μM), this compound displayed an SGLT2 %-inhibition of 72.2% @ 0.3 μM.

For the compound `COc1cc(Cl)c(Cc2cc3c(s2)CCN(C(C)=O)C3)cc1[C@@H]1O[C@H](CO)[C@@H](F)[C@H](O)[C@H]1O` [Compound 77], the SGLT1 %-inhibition at human SGLT1 (@ 0.3 μM) worked out at 30.3% @ 0.3 μM. The SGLT2 %-inhibition at human SGLT2 (@ 0.3 μM) is reported as 69.9% @ 0.3 μM.
